For one molecule, Kd and IC50 results are on record in ChEMBL document CHEMBL1156625, “NMR screening for lead compounds using tryptophan-mutated proteins” (J Med Chem, 2008).

In assay [1] the target is Cyclin-dependent kinase 2 (Homo sapiens, UniProt P24941). Nature of the assay: Binding affinity to CDK2.
A short description of assay [2]: Inhibition of PKC.
Assay [3] in a line: Inhibition of PKA.
In assay [4] the target is Epidermal growth factor receptor (Homo sapiens, UniProt P00533). Nature of the assay: Inhibition of EGFR.

Bounds are passed on as bounds.

Epidermal growth factor receptor, sequence (P00533 whole entry): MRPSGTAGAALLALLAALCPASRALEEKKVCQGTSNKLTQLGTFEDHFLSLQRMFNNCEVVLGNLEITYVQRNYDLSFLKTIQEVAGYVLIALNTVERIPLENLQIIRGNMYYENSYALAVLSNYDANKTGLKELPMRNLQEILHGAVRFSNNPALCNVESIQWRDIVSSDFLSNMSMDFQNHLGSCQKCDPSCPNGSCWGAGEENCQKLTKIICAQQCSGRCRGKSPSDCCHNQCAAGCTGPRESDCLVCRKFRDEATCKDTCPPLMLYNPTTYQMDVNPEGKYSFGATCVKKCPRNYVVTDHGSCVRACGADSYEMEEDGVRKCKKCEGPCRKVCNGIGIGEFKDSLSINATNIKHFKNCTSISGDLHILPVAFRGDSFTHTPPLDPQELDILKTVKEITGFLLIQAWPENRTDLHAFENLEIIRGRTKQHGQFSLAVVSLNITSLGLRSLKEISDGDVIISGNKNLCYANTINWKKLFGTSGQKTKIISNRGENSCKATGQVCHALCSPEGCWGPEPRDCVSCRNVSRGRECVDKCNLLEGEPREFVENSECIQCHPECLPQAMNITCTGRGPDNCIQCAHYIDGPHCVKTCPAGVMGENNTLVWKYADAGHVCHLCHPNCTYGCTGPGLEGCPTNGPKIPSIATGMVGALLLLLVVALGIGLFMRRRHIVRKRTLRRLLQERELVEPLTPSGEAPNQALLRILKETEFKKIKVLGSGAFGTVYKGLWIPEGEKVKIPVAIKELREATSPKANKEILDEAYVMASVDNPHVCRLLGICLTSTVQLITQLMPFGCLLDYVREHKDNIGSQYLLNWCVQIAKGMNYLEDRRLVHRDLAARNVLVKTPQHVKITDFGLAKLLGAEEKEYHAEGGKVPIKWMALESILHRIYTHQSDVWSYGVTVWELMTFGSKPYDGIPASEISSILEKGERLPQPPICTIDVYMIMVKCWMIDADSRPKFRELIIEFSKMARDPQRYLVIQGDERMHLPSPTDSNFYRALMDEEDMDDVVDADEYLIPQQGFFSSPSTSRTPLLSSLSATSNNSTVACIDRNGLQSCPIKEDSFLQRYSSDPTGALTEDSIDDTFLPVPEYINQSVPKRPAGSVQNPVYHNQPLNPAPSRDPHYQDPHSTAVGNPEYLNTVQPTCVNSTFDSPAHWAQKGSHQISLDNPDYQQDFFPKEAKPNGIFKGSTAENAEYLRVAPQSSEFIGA

`O=C(/C=C/c1ccc(O)c(O)c1)c1ccc(O)cc1O` [BUTEIN] had a Kd in assay [1] of 100 µM. The IC50 in assay [2] is over 500 µM; in assay [3], over 500 µM; in assay [4] it was 16 µM.

One may read the Kd as a measure of binding affinity in units of concentration. A high value points to weaker binding. The IC50 is the concentration at which inhibition is half-maximal.
